Among the test systems are 786-0 renal; ACHN renal; COLO 205 colon; HL-60(TB) leukemia; HT29 colon; KM12 colon; M14 melanoma; OVCAR-4 ovarian; SW-620 colon; UACC-62 melanoma.
What all share (assay): DTP human tumour cell line panel, 48 h

Each structure is given as a SMILES string. “And” between values parts separate entries of the source, which are not always exact repeats. Equal entries are not always repeated.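 1) Cells in 96-well plates. 2) Compound, 48 h, 5 concentrations. 3) Linear interpolation between surrounding doses. 4) Unreached endpoint = highest concentration. GI50 marks 50% less growth. TGI is the concentration that stops growth completely.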 A value given as a limit tells only on which side of the number the result lay.

This is an account of results in PubChem BioAssay (NCI).

`COc1cc(/C=C/C(=O)c2cccc(-n3cc(-c4ccccc4)[nH]c3=O)c2)cc(OC)c1OC`: the GI50 in the test with 786-0 renal is 1.38 µM; in the test with ACHN renal it was 1.6 µM; in the test on COLO 205 colon, 1.51 µM; with HL-60(TB) leukemia it was 2.9 µM; in the test with HT29 colon, 0.662 µM; in the test on KM12 colon, 1.37 µM. Also, the GI50 is 1.35 µM in the test on M14 melanoma, 1.88 µM with OVCAR-4 ovarian, 0.39 µM in the test with SW-620 colon and 1.52 µM with UACC-62 melanoma. The TGI was 2.97 µM in the test on 786-0 renal; 3.21 µM in the test on ACHN renal; 2.83 µM in the test on COLO 205 colon; over 100 µM with HL-60(TB) leukemia; 1.85 µM in the test on HT29 colon; 2.66 µM in the test with KM12 colon. The TGI amounted to 2.72 µM in the test with M14 melanoma, 5.07 µM in the test with OVCAR-4 ovarian, 1.39 µM with SW-620 colon and 2.98 µM in the test on UACC-62 melanoma.

For `O=C1C2C3CC4C5C3C1C5C1(SCCS1)C42` (centres undefined), the total growth inhibition concentration (TGI) in the test with 786-0 renal, with ACHN renal, in the test with COLO 205 colon, in the test on HL-60(TB) leukemia, with KM12 colon and with M14 melanoma was over 100 µM each time. Further, the TGI in the test on OVCAR-4 ovarian, in the test on SW-620 colon and in the test on UACC-62 melanoma was over 100 µM in each case.

For `C=CCc1cccc(C=O)c1O`, the GI50 in the test with 786-0 renal was over 100 µM; with ACHN renal it was over 100 µM; with COLO 205 colon, over 100 µM; in the test with HL-60(TB) leukemia, 10.6 µM; in the test with HT29 colon it was 67.9 µM; with M14 melanoma it was 39.2 µM. The figures for the GI50 in the test with OVCAR-4 ovarian, with SW-620 colon and with UACC-62 melanoma were 21.7 µM, 50.6 µM and 35.9 µM, respectively. Also, the TGI with 786-0 renal was over 100 µM; in the test with ACHN renal it was over 100 µM; with COLO 205 colon it was over 100 µM; in the test on HL-60(TB) leukemia, 41 µM; in the test on HT29 colon it was over 100 µM; with M14 melanoma it was over 100 µM. The TGI in the test with OVCAR-4 ovarian, in the test on SW-620 colon and with UACC-62 melanoma was over 100 µM throughout.

`COc1ccc(-c2csc3c2-n2cccc2C3=O)cc1`: the GI50 was 0.0497 µM in the test with 786-0 renal; 0.00416 µM in the test with HL-60(TB) leukemia; 0.00571 µM in the test on HT29 colon; 0.0133 µM with KM12 colon; 2.58 µM in the test with OVCAR-4 ovarian; 0.0056 µM with SW-620 colon. The GI50 in the test with UACC-62 melanoma is 0.232 µM. In addition, the TGI in the test with 786-0 renal was over 100 µM; with ACHN renal it was over 90.9 µM; with COLO 205 colon, 5.78 µM; with HL-60(TB) leukemia it was 0.0185 µM and 0.0984 µM; with OVCAR-4 ovarian it was over 100 µM; in the test on SW-620 colon, over 100 µM. In the test on UACC-62 melanoma, this molecule returned a TGI of over 100 µM.

On to `CC(C)=CC[C@@H]1CC2(CC=C(C)C)C(=O)C(OC3(C(=O)c4ccccc4)C(=O)C4(CC=C(C)C)C[C@@H](CC=C(C)C)C(C)(C)C(CC=C(C)C)(C4=O)C3=O)(C(=O)c3ccccc3)C(=O)C(CC=C(C)C)(C2=O)C1(C)C` (some centres undefined), for which the GI50 in the test on 786-0 renal is 0.963 µM; in the test with ACHN renal it was 1.48 µM; in the test with COLO 205 colon, 1.2 µM; with HL-60(TB) leukemia, 1.06 µM; with HT29 colon, 1.41 µM; in the test on KM12 colon, 1.65 µM. Besides, the GI50 in the test with M14 melanoma is 1.13 µM; in the test with SW-620 colon it was 1.92 µM; in the test with UACC-62 melanoma, 0.878 µM. Besides, the TGI in the test on 786-0 renal is 2.61 µM; with ACHN renal, 5.99 µM; in the test on COLO 205 colon, 3.22 µM; with HL-60(TB) leukemia it was 2.44 µM; in the test on HT29 colon, 4.31 µM; with KM12 colon, 6.13 µM. Moreover, the values for the total growth inhibition concentration (TGI) in the test on M14 melanoma, with SW-620 colon and with UACC-62 melanoma were 3.13 µM, 8.29 µM and 1.98 µM, respectively.

For `CC1(OCc2ccccc2)C(=O)N2C1NCC2(C)C` (centres undefined), the TGI in the test with 786-0 renal, in the test with ACHN renal, with COLO 205 colon, with HL-60(TB) leukemia, in the test on HT29 colon and with M14 melanoma was over 100 µM in each case. Besides, the TGI in the test on OVCAR-4 ovarian, in the test on SW-620 colon and in the test on UACC-62 melanoma was over 100 µM each time.

As for `COC(=O)C(=O)C(C#N)c1nc2ccccc2s1` (centres undefined), the TGI in the test with 786-0 renal, in the test on ACHN renal, in the test on COLO 205 colon, with HL-60(TB) leukemia, in the test with HT29 colon and in the test with M14 melanoma was over 100 µM throughout. In addition, the TGI with OVCAR-4 ovarian, in the test on SW-620 colon and with UACC-62 melanoma was over 100 µM each time.

Turning to `Cc1cc(N(CCC#N)CCC#N)ccc1/C=C(\NC(=O)/C=C/c1ccccc1)C(=O)N=[N+]=[N-]`, the TGI with 786-0 renal, with ACHN renal, with COLO 205 colon, in the test on HL-60(TB) leukemia, in the test with HT29 colon and in the test with M14 melanoma was over 100 µM throughout. Further, the TGI in the test with SW-620 colon and in the test on UACC-62 melanoma was over 100 µM in each case.

Regarding `O=C(O)c1ccc(N(/C=C/C(=O)C(F)(F)F)Cc2ccc(Cl)cc2)cc1`, the GI50 was 31.4 µM in the test with 786-0 renal; 24.4 µM in the test with ACHN renal; 36.7 µM in the test on COLO 205 colon; 40.2 µM with HL-60(TB) leukemia; 37 µM with HT29 colon; 23.2 µM in the test on KM12 colon. The GI50 in the test with M14 melanoma was 22.7 µM; in the test with SW-620 colon, 35.9 µM; in the test with UACC-62 melanoma, 24 µM. For the same molecule, the TGI was over 100 µM with 786-0 renal; 66 µM with ACHN renal; over 100 µM in the test on COLO 205 colon; over 100 µM in the test on HL-60(TB) leukemia; over 100 µM with HT29 colon; 59.9 µM in the test with KM12 colon. Further, the TGI in the test with M14 melanoma was 62.7 µM; in the test on SW-620 colon, over 100 µM; in the test with UACC-62 melanoma it was 66.3 µM.

On to `CC(=O)C1(O)CC2(c3ccccc3)C(=O)C1(c1ccccc1)C(c1ccccc1)=C2c1ccccc1` (centres undefined), for which the TGI in the test with 786-0 renal, in the test on COLO 205 colon, with HL-60(TB) leukemia, in the test with HT29 colon, with KM12 colon and in the test with M14 melanoma was over 100 µM each time. The TGI in the test on OVCAR-4 ovarian, in the test with SW-620 colon and with UACC-62 melanoma was over 100 µM each time.

As to `CC(=O)/C(=C\c1ccc(Cl)cc1)c1ccccc1`, the GI50 was 0.128 µM in the test with 786-0 renal; 0.548 µM in the test on ACHN renal; 0.141 µM in the test with COLO 205 colon; 0.0307 µM in the test with HL-60(TB) leukemia; 0.14 µM in the test with HT29 colon; 0.054 µM in the test on KM12 colon. Further, the GI50 in the test with OVCAR-4 ovarian was 0.382 µM; in the test with SW-620 colon it was 0.0445 µM; in the test on UACC-62 melanoma, 0.0473 µM. Besides, the TGI with 786-0 renal is over 100 µM; in the test with ACHN renal, over 70 µM; with COLO 205 colon, 0.474 µM; in the test on HL-60(TB) leukemia, 0.117 µM; with HT29 colon, over 61.7 µM; in the test with KM12 colon, over 100 µM. The TGI in the test with OVCAR-4 ovarian is over 100 µM; with SW-620 colon, over 64.6 µM; in the test on UACC-62 melanoma, over 93.8 µM.

For `N/N=c1/nc2n(c3ncccc13)C=CNN2`, the TGI in the test on 786-0 renal, in the test on ACHN renal, in the test on COLO 205 colon, with HL-60(TB) leukemia, in the test on HT29 colon and in the test with KM12 colon was over 100 µM throughout. Further, the TGI in the test on SW-620 colon and with UACC-62 melanoma was over 100 µM throughout.

For the molecule `CCN1CCN(CCC(=O)Nc2cccc(-n3cc(-c4ccncc4)c(-c4ccc(Cl)c(OC)c4)n3)c2)CC1`, the GI50 in the test on 786-0 renal is 0.701 µM; in the test with ACHN renal it was 0.782 µM; in the test with HL-60(TB) leukemia it was 0.34 µM; in the test on HT29 colon, 0.381 µM; in the test on KM12 colon, 0.394 µM; in the test with M14 melanoma, 0.387 µM. The figures for the GI50 in the test on OVCAR-4 ovarian, with SW-620 colon and with UACC-62 melanoma were 0.919 µM, 0.338 µM and 0.757 µM, respectively. For the same molecule, the TGI with 786-0 renal was determined as 2.2 µM; in the test with ACHN renal, 2.71 µM; in the test on HL-60(TB) leukemia, 1.13 µM; in the test with HT29 colon it was 1.22 µM; with KM12 colon, 1.68 µM; with M14 melanoma, 1.73 µM. Further, the TGI in the test on OVCAR-4 ovarian turned out to be 7.53 µM; in the test on SW-620 colon, 1.5 µM; in the test with UACC-62 melanoma, 2.34 µM.

Turning to `CNC(=O)Oc1cc(C(C)C)ccc1Sc1ccc(C(C)C)cc1OC(=O)NC`, the GI50 with 786-0 renal is 11.5 µM; with ACHN renal, 6.92 µM; in the test on COLO 205 colon it was 14.4 µM; in the test with HL-60(TB) leukemia, 3.06 µM; in the test with HT29 colon it was 12.6 µM; in the test with KM12 colon, 5.78 µM. Besides, the GI50 with M14 melanoma is 3.61 µM; in the test on SW-620 colon, 5.01 µM; in the test with UACC-62 melanoma, 4.24 µM. The TGI with 786-0 renal came to 28.7 µM; with ACHN renal, 24.4 µM; in the test with COLO 205 colon, 28.8 µM; with HL-60(TB) leukemia, 12.7 µM; in the test with HT29 colon, 27.4 µM; in the test on KM12 colon it was 18.9 µM. In addition, the TGI in the test with M14 melanoma was found to be 16.3 µM; in the test with SW-620 colon, 20.1 µM; in the test with UACC-62 melanoma, 16.5 µM.

The term GI50 denotes the concentration giving 50% growth inhibition. The TGI is the concentration giving total growth inhibition. The low end stands for more potent growth arrest, the high end for less potent growth arrest.
